The structures appear in SMILES notation. Bounds are passed on as bounds.

For experiment [1], the target named is Atypical chemokine receptor 3 (Homo sapiens, UniProt P25106). Briefly: Displacement of [125I]SDF-1alpha from ACKR3 (unknown origin) expressed in CHO cells after 1 hr by scintillation counting method. It counts as cell-based. On the technique in general: In a radioligand displacement assay an active substance lowers the binding of a labelled ligand.
Experiment [2] has as its target C-X-C chemokine receptor type 4 (Homo sapiens, UniProt P61073). The experiment is described as follows: Displacement of [125I]SDF-1alpha from CXCR4 (unknown origin) expressed in HEK293 cells after 1 hr by scintillation counting method. Type of experiment: cell-based.

Sequence of C-X-C chemokine receptor type 4 (P61073 whole entry): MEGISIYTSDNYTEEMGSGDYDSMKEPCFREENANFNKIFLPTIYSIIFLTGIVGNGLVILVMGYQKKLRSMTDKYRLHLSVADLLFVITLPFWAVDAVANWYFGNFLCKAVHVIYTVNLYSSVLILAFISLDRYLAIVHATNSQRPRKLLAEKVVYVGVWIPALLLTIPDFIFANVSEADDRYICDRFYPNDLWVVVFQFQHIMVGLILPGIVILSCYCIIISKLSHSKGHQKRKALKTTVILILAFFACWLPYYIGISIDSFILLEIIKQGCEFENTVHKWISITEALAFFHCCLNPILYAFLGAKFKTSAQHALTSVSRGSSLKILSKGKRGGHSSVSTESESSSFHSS
Sequence of Atypical chemokine receptor 3 (P25106 whole entry): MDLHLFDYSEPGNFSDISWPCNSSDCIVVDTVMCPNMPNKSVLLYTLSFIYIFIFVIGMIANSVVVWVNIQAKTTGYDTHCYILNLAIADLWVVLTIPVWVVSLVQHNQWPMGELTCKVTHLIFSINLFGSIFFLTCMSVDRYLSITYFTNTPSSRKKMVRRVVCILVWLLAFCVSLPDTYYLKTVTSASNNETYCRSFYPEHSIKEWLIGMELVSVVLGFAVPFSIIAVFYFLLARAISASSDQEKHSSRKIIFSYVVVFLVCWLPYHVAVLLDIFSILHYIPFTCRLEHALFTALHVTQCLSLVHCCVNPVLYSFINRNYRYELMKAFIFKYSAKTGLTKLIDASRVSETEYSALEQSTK

As to `CN1C(=O)[C@H](Cc2c[nH]c3ccccc23)NC(=O)[C@@H](Cc2ccc(O)cc2)NC(=O)[C@@H]2CCCN2C(=O)[C@H](Cc2ccc3ccccc3c2)NC(=O)[C@@H]1CCCNC(=N)N`, the concentration for half-maximal inhibition (IC50) in experiment [1] was 2 to 24 µM; in experiment [2], more than 30 µM.

On to `CN1C(=O)[C@H](CCCNC(=N)N)NC(=O)[C@@H](Cc2ccc(O)cc2)NC(=O)[C@@H]2CCCN2C(=O)[C@H](Cc2ccc3ccccc3c2)NC(=O)[C@@H]1CCCCNC(=N)N`, for which the IC50 in experiment [1] was 0.56 µM; in experiment [2] it was more than 30 µM. On to `CC(C)[C@H]1C(=O)N[C@H](Cc2ccc(O)cc2)C(=O)N[C@@H](CCCNC(=N)N)C(=O)N(C)[C@@H](CCCNC(N)=O)C(=O)N[C@@H](Cc2ccc3ccccc3c2)C(=O)N1C`, for which the IC50 in experiment [1] is 4.9 µM; in experiment [2], more than 30 µM.

On to `CN1C(=O)[C@H](CCCNC(=N)N)NC(=O)[C@@H](Cc2ccc(O)cc2)NC(=O)[C@H](Cc2c[nH]c3ccccc23)NC(=O)[C@H](Cc2ccc3ccccc3c2)NC(=O)[C@@H]1CCCNC(N)=O`, for which the figures for the IC50 in experiment [1] and in experiment [2] were 0.85 µM and more than 30 µM, respectively. For `CC(C)C[C@@H]1NC(=O)[C@@H](Cc2ccc(O)cc2)NC(=O)[C@@H]2CCCN2C(=O)[C@H](Cc2ccc3ccccc3c2)NC(=O)[C@H](CCCNC(=N)N)N(C)C1=O` the same measures were 2 to 24 µM and more than 30 µM. Turning to `CN1C(=O)[C@H](CCCNC(=N)N)NC(=O)[C@@H](Cc2ccc(O)cc2)NC(=O)[C@@H]2CCCN2C(=O)[C@H](Cc2ccc3ccccc3c2)NC(=O)[C@@H]1CCCN`, the half-maximal inhibitory concentration (IC50) in experiment [1] was 1.3 µM; in experiment [2], more than 30 µM. For `CC[C@H](C)[C@@H]1NC(=O)[C@@H](Cc2ccc(O)cc2)NC(=O)[C@@H]2CCCN2C(=O)[C@H](Cc2ccc3ccccc3c2)NC(=O)[C@H](CCCNC(=N)N)N(C)C1=O` the same measures were 2 to 24 µM and more than 30 µM. In the same order, the values of `CN1C(=O)[C@H](CCCNC(=N)N)NC(=O)[C@@H](Cc2ccc(O)cc2)NC(=O)[C@@H]2Cc3ccccc3N2C(=O)[C@H](Cc2ccc3ccccc3c2)NC(=O)[C@@H]1CCCNC(N)=O` are 0.19 µM and more than 30 µM. In the same order, the values of `CN1C(=O)[C@H](CCC(N)=O)NC(=O)[C@@H](Cc2ccc(O)cc2)NC(=O)[C@@H]2CCCN2C(=O)[C@H](Cc2ccc3ccccc3c2)NC(=O)[C@@H]1CCCNC(=N)N` are 9.5 µM and more than 30 µM. Regarding `CN1C(=O)[C@H](CCCNC(=N)N)NC(=O)[C@@H](Cc2cccc(F)c2)NC(=O)[C@@H]2CCCN2C(=O)[C@H](Cc2ccc3ccccc3c2)NC(=O)[C@@H]1CCCNC(N)=O`, the results for the half-inhibitory concentration (IC50) in experiment [1] and in experiment [2] were 1.3 µM and more than 30 µM, respectively. In the same order, the values of `CN1C(=O)[C@H](CCCNC(=N)N)NC(=O)[C@@H](Cc2ccc(O)cc2)NC(=O)[C@H](Cc2ccc3ccccc3c2)N(C)C(=O)[C@H](Cc2ccc3ccccc3c2)NC(=O)[C@@H]1CCCNC(N)=O` are 2.6 µM and more than 30 µM. Regarding `CN1C(=O)[C@H](CCCNC(=N)N)NC(=O)[C@@H](Cc2ccc(O)cc2)NC(=O)[C@@H]2Cc3[nH]c4ccccc4c3CN2C(=O)[C@H](Cc2ccc3ccccc3c2)NC(=O)[C@@H]1CCCNC(N)=O`, the figures for the half-maximal inhibitory concentration (IC50) in experiment [1] and in experiment [2] were 2.1 µM and more than 30 µM, respectively. In the same order, the values of `CN1C(=O)[C@H](CCCCNC(=N)N)NC(=O)[C@@H](Cc2ccc(O)cc2)NC(=O)[C@@H]2CCCN2C(=O)[C@H](Cc2ccc3ccccc3c2)NC(=O)[C@@H]1CCCNC(=N)N` are 0.84 µM and more than 30 µM. In the same order, the values of `CSCC[C@H]1C(=O)N[C@H](Cc2ccc(O)cc2)C(=O)N[C@@H](CCCNC(=N)N)C(=O)N(C)[C@@H](CCCNC(N)=O)C(=O)N[C@@H](Cc2ccc3ccccc3c2)C(=O)N1C` are 1.8 µM and more than 30 µM.

For `CN1C(=O)[C@H](CCCNC(=N)N)NC(=O)[C@@H](Cc2ccc(O)cc2)NC(=O)[C@H](Cc2c[nH]c3ccccc23)N(C)C(=O)[C@H](Cc2ccc3ccccc3c2)NC(=O)[C@@H]1CCCNC(N)=O`, the concentration for half-maximal inhibition (IC50) is 0.52 µM in experiment [1] and 10 µM in experiment [2]. In the same order, the values of `CN1C(=O)[C@@H]2CCCN2C(=O)[C@@H](Cc2ccc(O)cc2)NC(=O)[C@@H]2CCCN2C(=O)[C@H](Cc2ccc3ccccc3c2)NC(=O)[C@@H]1CCCNC(=N)N` are 2 to 24 µM and more than 30 µM. In the same order, the values of `CN1C(=O)[C@H](CCCNC(=N)N)NC(=O)[C@@H](Cc2ccc(O)cc2)NC(=O)[C@H](Cc2csc3ccccc23)N(C)C(=O)[C@H](Cc2ccc3ccccc3c2)NC(=O)[C@@H]1CCCNC(N)=O` are 1 µM and more than 30 µM. In the same order, the values of `CC(C)C[C@H]1C(=O)N[C@H](Cc2ccc(O)cc2)C(=O)N[C@@H](CCCNC(=N)N)C(=O)N(C)[C@@H](CCCNC(N)=O)C(=O)N[C@@H](Cc2ccc3ccccc3c2)C(=O)N1C` are 1.9 µM and more than 30 µM. On to `CN1C(=O)[C@H](CCCNC(N)=O)NC(=O)[C@@H](Cc2ccc(O)cc2)NC(=O)[C@@H]2CCCN2C(=O)[C@H](Cc2ccc3ccccc3c2)NC(=O)[C@@H]1CCCNC(=N)N`, for which the 50% inhibitory concentration (IC50) was 3.6 µM in experiment [1] and more than 30 µM in experiment [2]. In the case of `CN1C(=O)[C@H](CCCNC(=N)N)NC(=O)[C@@H](Cc2ccc(O)cc2)NC(=O)[C@@H]2CCCN2C(=O)[C@H](Cc2ccc3ccccc3c2)NC(=O)[C@@H]1CC(N)=O`, the IC50 in experiment [1] is 4.1 µM; in experiment [2], more than 30 µM.

For `CN1C(=O)[C@H](CCCNC(=N)N)NC(=O)[C@@H](Cc2ccc(O)cc2)NC(=O)[C@H](Cc2ccc(-c3ccccc3)cc2)N(C)C(=O)[C@H](Cc2ccc3ccccc3c2)NC(=O)[C@@H]1CCCNC(N)=O`, the IC50 in experiment [1] was 4 µM; in experiment [2] it was more than 30 µM. As to `CSCC[C@@H]1NC(=O)[C@@H](Cc2ccc(O)cc2)NC(=O)[C@@H]2CCCN2C(=O)[C@H](Cc2ccc3ccccc3c2)NC(=O)[C@H](CCCNC(=N)N)N(C)C1=O`, the half-inhibitory concentration (IC50) was 2 to 24 µM in experiment [1] and more than 30 µM in experiment [2].

In the case of `CN1C(=O)[C@H](CCCNC(=N)N)NC(=O)[C@@H](Cc2ccccc2F)NC(=O)[C@@H]2CCCN2C(=O)[C@H](Cc2ccc3ccccc3c2)NC(=O)[C@@H]1CCCNC(N)=O`, the concentration for half-maximal inhibition (IC50) in experiment [1] was 0.41 µM; in experiment [2] it was more than 30 µM. In the same order, the values of `CN1C(=O)[C@H](CCCNC(=N)N)NC(=O)[C@@H](Cc2ccc(O)cc2)NC(=O)[C@H](Cc2ccc(O)cc2)N(C)C(=O)[C@H](Cc2ccc3ccccc3c2)NC(=O)[C@@H]1CCCNC(N)=O` are 1.8 µM and more than 30 µM. Regarding `CN1C(=O)[C@H](CCCNC(=N)N)NC(=O)[C@@H](Cc2ccc(O)cc2)NC(=O)[C@@H]2CCCN2C(=O)[C@H](Cc2ccc3ccccc3c2)NC(=O)[C@@H]1CCC(N)=O`, the half-maximal inhibitory concentration (IC50) in experiment [1] was 5.8 µM; in experiment [2], more than 30 µM. `CN1C(=O)[C@H](CCCNC(=N)N)NC(=O)[C@@H](Cc2ccc(O)cc2)NC(=O)[C@@H]2CCCN2C(=O)[C@H](Cc2ccc3ccccc3c2)NC(=O)[C@@H]1CCCNC(N)=O`: the results for the IC50 in experiment [1] and in experiment [2] were 13 µM and more than 30 µM, respectively. In the case of `CN1C(=O)[C@H](CCCNC(=N)N)NC(=O)[C@@H](Cc2ccc([N+](=O)[O-])cc2)NC(=O)[C@@H]2CCCN2C(=O)[C@H](Cc2ccc3ccccc3c2)NC(=O)[C@@H]1CCCNC(N)=O`, the IC50 in experiment [1] is 2 µM; in experiment [2], more than 30 µM. For `CN1C(=O)[C@H](CCCNC(=N)N)NC(=O)[C@@H](Cc2ccc(C(=O)c3ccccc3)cc2)NC(=O)[C@@H]2CCCN2C(=O)[C@H](Cc2ccc3ccccc3c2)NC(=O)[C@@H]1CCCNC(N)=O` the same measures were 0.72 µM and more than 30 µM. For `CN1C(=O)[C@H](Cc2cnc[nH]2)NC(=O)[C@@H](Cc2ccc(O)cc2)NC(=O)[C@@H]2CCCN2C(=O)[C@H](Cc2ccc3ccccc3c2)NC(=O)[C@@H]1CCCNC(=N)N`, the half-inhibitory concentration (IC50) was 2 to 24 µM in experiment [1] and more than 30 µM in experiment [2]. For `CC[C@H](C)[C@H]1C(=O)N[C@H](Cc2ccc(O)cc2)C(=O)N[C@@H](CCCNC(=N)N)C(=O)N(C)[C@@H](CCCNC(N)=O)C(=O)N[C@@H](Cc2ccc3ccccc3c2)C(=O)N1C` the same measures were 2.2 µM and more than 30 µM. For `CC(C)[C@@H]1NC(=O)[C@@H](Cc2ccc(O)cc2)NC(=O)[C@@H]2CCCN2C(=O)[C@H](Cc2ccc3ccccc3c2)NC(=O)[C@H](CCCNC(=N)N)N(C)C1=O`, the half-inhibitory concentration (IC50) in experiment [1] is 2 to 24 µM; in experiment [2], more than 30 µM. As for `CN1C(=O)[C@H](CCCCN)NC(=O)[C@@H](Cc2ccc(O)cc2)NC(=O)[C@@H]2CCCN2C(=O)[C@H](Cc2ccc3ccccc3c2)NC(=O)[C@@H]1CCCNC(=N)N`, the results for the IC50 in experiment [1] and in experiment [2] were 2 to 24 µM and more than 30 µM, respectively. With `CN1C(=O)[C@H](Cc2ccc3ccccc3c2)NC(=O)[C@H](CCCNC(N)=O)N(C)C(=O)[C@H](CCCNC(=N)N)NC(=O)[C@@H](Cc2ccc(O)cc2)NC(=O)[C@H]1CS`, the 50% inhibitory concentration (IC50) in experiment [1] is 4.6 µM; in experiment [2], 21 µM. In the same order, the values of `CN1C(=O)[C@H](Cc2ccc(O)cc2)NC(=O)[C@@H](Cc2ccc(O)cc2)NC(=O)[C@@H]2CCCN2C(=O)[C@H](Cc2ccc3ccccc3c2)NC(=O)[C@@H]1CCCNC(=N)N` are 2 to 24 µM and more than 30 µM. In the same order, the values of `CN1C(=O)[C@H](CCCNC(=N)N)NC(=O)[C@@H](Cc2ccc(F)cc2)NC(=O)[C@@H]2CCCN2C(=O)[C@H](Cc2ccc3ccccc3c2)NC(=O)[C@@H]1CCCNC(N)=O` are 1.2 µM and more than 30 µM. Regarding `CN1C(=O)[C@H](CCCNC(=N)N)NC(=O)[C@@H](Cc2ccc(O)cc2)NC(=O)[C@H](Cc2ccccc2)N(C)C(=O)[C@H](Cc2ccc3ccccc3c2)NC(=O)[C@@H]1CCCNC(N)=O`, the values for the IC50 in experiment [1] and in experiment [2] were 0.6 µM and more than 30 µM, respectively. For `C[C@@H](O)[C@@H]1NC(=O)[C@@H](Cc2ccc(O)cc2)NC(=O)[C@@H]2CCCN2C(=O)[C@H](Cc2ccc3ccccc3c2)NC(=O)[C@H](CCCNC(=N)N)N(C)C1=O` the same measures were 2 to 24 µM and more than 30 µM.

`CN1C(=O)[C@H](CCCCNC(=N)N)NC(=O)[C@@H](Cc2ccccc2F)NC(=O)[C@H](Cc2cccc3ccccc23)N(C)C(=O)[C@H](Cc2ccc3ccccc3c2)NC(=O)[C@@H]1CCCCNC(=N)N` had an IC50 in experiment [1] of 0.45 µM. In other words, the sub-micromolar range.

Usually IC50 stands for the midpoint of a concentration-inhibition curve. Low readings indicate inhibition by little substance, high ones a need for much substance.

The values above are taken from ChEMBL document CHEMBL4043305, “Structure-Activity Relationship Study of Cyclic Pentapeptide Ligands for Atypical Chemokine Receptor 3 (ACKR3)” (J Med Chem, 2018).
